US8415469B2, “Compounds and methods for kinase modulation, and indications therefor” (Plexxikon Inc., priority 2005, dated 2013)

Key:
Format in all cases: biochemical
Jak3 = target: T1, Jak3 (Homo sapiens, UniProt P52333); experiment: AlphaScreen kinase assay, Jak3; conditions: read-out: IC50, activity toward kinase Jak3
T1 sequence (P52333 1-1124): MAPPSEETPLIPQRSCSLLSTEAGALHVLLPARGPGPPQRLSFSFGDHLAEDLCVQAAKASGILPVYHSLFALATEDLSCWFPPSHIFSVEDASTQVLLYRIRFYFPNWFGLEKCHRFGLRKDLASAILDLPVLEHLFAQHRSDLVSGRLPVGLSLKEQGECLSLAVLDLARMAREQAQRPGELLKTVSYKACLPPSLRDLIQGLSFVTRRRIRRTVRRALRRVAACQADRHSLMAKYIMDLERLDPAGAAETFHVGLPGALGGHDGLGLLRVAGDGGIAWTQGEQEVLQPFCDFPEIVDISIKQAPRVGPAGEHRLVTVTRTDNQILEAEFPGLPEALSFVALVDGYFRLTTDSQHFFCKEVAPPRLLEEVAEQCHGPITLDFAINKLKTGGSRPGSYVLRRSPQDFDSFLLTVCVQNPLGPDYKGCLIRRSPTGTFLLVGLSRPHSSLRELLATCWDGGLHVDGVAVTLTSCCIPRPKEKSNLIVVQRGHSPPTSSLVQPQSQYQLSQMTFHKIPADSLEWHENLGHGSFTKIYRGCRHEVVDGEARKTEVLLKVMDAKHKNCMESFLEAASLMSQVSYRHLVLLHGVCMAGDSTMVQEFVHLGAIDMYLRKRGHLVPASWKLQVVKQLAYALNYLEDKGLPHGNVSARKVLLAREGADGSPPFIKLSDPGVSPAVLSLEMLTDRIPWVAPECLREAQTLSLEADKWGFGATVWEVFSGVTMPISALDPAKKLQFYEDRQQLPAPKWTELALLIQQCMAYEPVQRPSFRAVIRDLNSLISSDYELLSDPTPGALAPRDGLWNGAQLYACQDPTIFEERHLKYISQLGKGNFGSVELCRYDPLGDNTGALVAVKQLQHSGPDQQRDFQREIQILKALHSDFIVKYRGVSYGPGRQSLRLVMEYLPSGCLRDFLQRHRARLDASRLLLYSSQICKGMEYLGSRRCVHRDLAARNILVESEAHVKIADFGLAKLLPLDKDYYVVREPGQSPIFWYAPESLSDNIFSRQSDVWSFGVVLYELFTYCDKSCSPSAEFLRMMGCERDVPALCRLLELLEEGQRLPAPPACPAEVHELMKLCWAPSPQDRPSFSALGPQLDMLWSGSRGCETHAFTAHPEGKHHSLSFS
From the text: AlphaScreen assay was used to screen additional kinases. The assay is similarly dependent on the phosphorylation of a peptide substrate. In this assay, an antibody that recognizes phosphorylated substrate is bound to an acceptor bead. The peptide substrate is attached to biotin, which binds to a donor head that contains streptavidin. Thus phosphorylated substrate is bound by antibody and streptavidin, bringing the donor and acceptor heads into close proximity when kinase is not inhibited. The donor produces singlet oxygen which results in emission from the acceptor when they are in close proximity. Conversely, when kinase is inhibited, the donor and acceptor beads are not associated and the emission from the acceptor is reduced.
AlphaScreen assays were done using compounds dissolved in DMSO to a concentration of 20 mM. The compounds were diluted accordingly to the desired final concentrations in each sample well, using 1:3 serial dilution for a total of 8 concentration points.

Stk6 = target: T2, Stk6 (Homo sapiens, UniProt O14965); experiment: Z'-Lyte FRET kinase assay (Invitrogen), Stk6; conditions: read-out: IC50, activity toward kinase Stk6
T2 construct: purchased Invitrogen (Carlsbad, Calif.), screening service
T2 sequence (O14965 1-403): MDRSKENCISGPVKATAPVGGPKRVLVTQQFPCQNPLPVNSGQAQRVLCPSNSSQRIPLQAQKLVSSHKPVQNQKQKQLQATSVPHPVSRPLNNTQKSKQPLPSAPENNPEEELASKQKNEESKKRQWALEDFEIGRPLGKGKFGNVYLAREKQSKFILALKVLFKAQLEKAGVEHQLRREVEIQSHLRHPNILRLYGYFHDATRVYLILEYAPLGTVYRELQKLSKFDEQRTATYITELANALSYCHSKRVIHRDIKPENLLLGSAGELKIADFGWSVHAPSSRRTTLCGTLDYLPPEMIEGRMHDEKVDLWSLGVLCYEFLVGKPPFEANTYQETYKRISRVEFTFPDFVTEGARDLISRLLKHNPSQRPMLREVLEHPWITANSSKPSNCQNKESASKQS

B-Raf V600E = target: T3, B-Raf V600E (Homo sapiens, UniProt P15056, V600E); experiment: AlphaScreen kinase assay, B-Raf V600E; conditions: read-out: IC50, activity toward kinase B-Raf V600E
T3 construct: P4254. pFastBacBD-CDC37 BRAF D437-K722-X, V600E; His6 with pFastBac HT leader (TEV site) (N); made in house; host or cells: Sf9 (baculovirus; chaperone CDC37 co-expressed)

Kdr = target: T4, Kdr (Homo sapiens, UniProt P35968); experiment: Z'-Lyte FRET kinase assay (Invitrogen), Kdr; conditions: read-out: IC50, activity toward kinase Kdr
T4 construct: purchased Invitrogen (assay run by Invitrogen)

MAP2K1 = target: T5, MAP2K1 (Homo sapiens, UniProt Q02750); experiment: Z'-Lyte FRET kinase assay (Invitrogen), MAP2K1; conditions: read-out: IC50, activity toward kinase MAP2K1
T5 construct: purchased Invitrogen (assay run by Invitrogen)

Ret = target: T6, Ret (Homo sapiens, UniProt P07949); experiment: AlphaScreen kinase assay, Ret; conditions: read-out: IC50, activity toward kinase Ret
T6 construct: P1378.pET-SF BI-PTP RET H661-R1012 HIS; made in house
T6 sequence (P07949 with tags, fused parts or gaps): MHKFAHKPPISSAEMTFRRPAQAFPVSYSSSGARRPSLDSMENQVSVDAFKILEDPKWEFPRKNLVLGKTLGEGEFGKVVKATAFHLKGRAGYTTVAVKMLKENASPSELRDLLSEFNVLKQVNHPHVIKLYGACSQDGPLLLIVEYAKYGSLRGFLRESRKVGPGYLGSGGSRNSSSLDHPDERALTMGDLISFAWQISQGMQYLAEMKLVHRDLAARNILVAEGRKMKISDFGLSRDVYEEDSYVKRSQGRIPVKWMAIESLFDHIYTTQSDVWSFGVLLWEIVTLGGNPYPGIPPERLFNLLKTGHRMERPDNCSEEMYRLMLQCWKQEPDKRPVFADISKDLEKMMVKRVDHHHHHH

Btk = target: T7, Btk (Homo sapiens, UniProt Q06187); experiment: Z'-Lyte FRET kinase assay (Invitrogen), Btk; conditions: read-out: IC50, activity toward kinase Btk
T7 construct: purchased Invitrogen (assay run by Invitrogen)

FGFR1 = target: T8, FGFR1 (Homo sapiens, UniProt P11362, C488A/C584S); experiment: AlphaScreen kinase assay, FGFR1; conditions: read-out: IC50, activity toward kinase FGFR
T8 construct: P1351.pET N6 BI-PTP FGFR A458-E765-X C488A, C584S; made in house; host or cells: E. coli (PTP1B co-expressed)

Flt4 = target: T9, Flt4 (Homo sapiens, UniProt P35916); experiment: AlphaScreen kinase assay, Flt4; conditions: read-out: IC50, activity toward kinase Flt4
T9 construct: purchased ProQinase GmbH (Freiburg, Germany)
How it was run: (§1)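 AlphaScreen, biotin-peptide substrate; streptavidin donor/anti-phospho acceptor beads; decreased emission = inhibition. Cpds 20 mM DMSO stock, 1:3 x 8 conc.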

Pyk2 = target: T10, Pyk2 (Homo sapiens, UniProt Q14289); experiment: AlphaScreen kinase assay, Pyk2; conditions: read-out: IC50, activity toward kinase Pyk2
T10 construct: purchased Upstate Biotechnology

Jnk3 = target: T11, Jnk3 (Homo sapiens, UniProt P53779); experiment: AlphaScreen kinase assay, Jnk3; conditions: read-out: IC50, activity toward kinase Jnk3
T11 construct: purchased Upstate Biotechnology

PKC theta = target: T12, PKC theta (Homo sapiens, UniProt Q04759); experiment: Z'-Lyte FRET kinase assay (Invitrogen), PKC theta; conditions: read-out: IC50, activity toward kinase PKC theta
T12 construct: purchased Invitrogen (Carlsbad, Calif.), screening service
From the text: The effect of potential modulators of kinase activity can be measured in a variety of different assays known in the art. For example, direct radiometric, indirect FRET or AlphaScreen assays may be used to assess the level of phosphorylation of a substrate in the presence of test compounds in order to determine the inhibitory affect of the compound on the kinase. Invitrogen (Carlsbad, Calif.) uses a FRET based assay for Btk, EGFR, EphB2, Flt3, lrak4, Kdr, MAP2K1, MAPKAPK2, PDGFRB, PKC theta, Stk6 and Yes. For these assays, compounds of the invention were screened by Invitrogen using Z′-Lyte™ kinase assay.
Briefly, the Invitrogen kinase assay involves use of a specific peptide substrate optimized for each kinase, containing a fluorophore at each end that make up the FRET pair. The peptide sensitivity to proteolytic cleavage depends on phosphorylation of the peptide. Non-phosphorylated peptide is cleaved by a protease while peptide phosphorylated by the kinase is not cleaved. Cleavage of the peptide disrupts the FRET between the donor (coumarin) and acceptor (fluorescein) fluorophores, resulting in an increase in the ratio of donor emission to acceptor emission. The emission ratio of coumarin to fluorescein is used to assess the reaction progress. The extent of phosphorylation is determined from the emission ratio, which is low when the kinase is active (phosphorylated peptide is not cleaved, FRET pair connected) or higher for inhibited kinase (non-phosphorylated peptide is cleaved, FRET pair separated). Thus, the assay involves a kinase reaction in the presence of varying concentrations of a given compound, a development reaction with site specific protease, and detection of the fluorescent emission ratio of coumarin and fluorscein. […] Reaction conditions for each kinase are determined to provide optimal reaction times, incubation temperature, kinase and ATP concentrations. Test samples are made up in 1× kinase buffer (50 mM HEPES pH 7.5, 50 mM MgCl2, 5 mM EGTA, 0.05% BRIJ-35) and compound at desired concentration prepared in DMSO such that the final DMSO is 1%. […] Typically, assay plates are prepared to 10 μl final volume per sample, adding 2.5 μl of compound at 4× the desired concentration in 4% DMSO (serial dilution of compound provides concentration curve), 5 μl of the desired kinase mixed with Z′-LYTE™ peptide substrate (2× in 2× kinase buffer, final peptide at 2 μM), and 2.5 μl of 4×ATP solution. All kinase except for MAP2K1 were at 10 μM ATP in the kinase reaction, while MAP2K1 was at 100 μM. Samples are mixed and the kinase reaction is incubated 1 hour at room temperature, after which 5 μl of development solution is added and mixed. After incubation for another 1 hour at room temperature, 5 μl of stop reagent is added to each sample and mixed. The fluorescence signals are measured to determine the emission ratio.

Jnk2 = target: T13, Jnk2 (Homo sapiens, UniProt P45984); experiment: AlphaScreen kinase assay, Jnk2; conditions: read-out: IC50, activity toward kinase Jnk2
T13 construct: purchased Roche Protein Expression Group (Indianapolis, IN)
How it was run: as §1

Yes = target: T14, Yes (Homo sapiens, UniProt P07947); experiment: Z'-Lyte FRET kinase assay (Invitrogen), Yes; conditions: read-out: IC50, activity toward kinase Yes
T14 construct: purchased Invitrogen (Carlsbad, Calif.), screening service
How it was run: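 Under a compound concentration curve, the kinase acted on a dual-labelled peptide at 2 μM with ATP at 10 μM for one hour at ambient temperature (buffer pH 7.5, 1% DMSO). Phosphorylation extent came from the emission ratio after protease development.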

T3 sequence (P15056 with tags, fused parts or gaps V600E): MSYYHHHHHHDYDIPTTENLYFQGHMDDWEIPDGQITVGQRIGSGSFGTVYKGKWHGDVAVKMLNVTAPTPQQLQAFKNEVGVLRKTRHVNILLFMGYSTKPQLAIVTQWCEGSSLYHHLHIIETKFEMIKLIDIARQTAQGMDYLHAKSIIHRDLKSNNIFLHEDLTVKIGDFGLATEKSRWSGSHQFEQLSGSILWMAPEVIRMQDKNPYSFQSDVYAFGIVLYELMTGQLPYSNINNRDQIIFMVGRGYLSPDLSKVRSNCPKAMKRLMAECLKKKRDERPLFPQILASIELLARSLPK
T7 sequence (Q06187 whole entry): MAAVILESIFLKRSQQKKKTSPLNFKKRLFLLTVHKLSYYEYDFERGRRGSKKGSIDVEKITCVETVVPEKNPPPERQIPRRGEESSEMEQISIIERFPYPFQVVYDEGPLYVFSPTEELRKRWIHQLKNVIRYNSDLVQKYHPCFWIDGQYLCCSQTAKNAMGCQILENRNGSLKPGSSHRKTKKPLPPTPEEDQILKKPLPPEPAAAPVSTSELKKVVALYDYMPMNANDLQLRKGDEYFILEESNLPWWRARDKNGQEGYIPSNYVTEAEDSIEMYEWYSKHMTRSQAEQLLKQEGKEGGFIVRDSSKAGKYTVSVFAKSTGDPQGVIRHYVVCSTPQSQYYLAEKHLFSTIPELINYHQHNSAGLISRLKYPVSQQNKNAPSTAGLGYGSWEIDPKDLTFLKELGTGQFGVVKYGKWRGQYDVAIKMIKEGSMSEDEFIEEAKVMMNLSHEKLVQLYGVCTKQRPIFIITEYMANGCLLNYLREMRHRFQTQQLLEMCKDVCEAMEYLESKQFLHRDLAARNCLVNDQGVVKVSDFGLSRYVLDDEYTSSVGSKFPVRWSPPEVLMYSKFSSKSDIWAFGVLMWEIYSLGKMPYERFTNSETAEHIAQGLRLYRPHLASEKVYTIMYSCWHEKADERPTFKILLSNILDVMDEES
T8 sequence (P11362 458-765 C488A/C584S): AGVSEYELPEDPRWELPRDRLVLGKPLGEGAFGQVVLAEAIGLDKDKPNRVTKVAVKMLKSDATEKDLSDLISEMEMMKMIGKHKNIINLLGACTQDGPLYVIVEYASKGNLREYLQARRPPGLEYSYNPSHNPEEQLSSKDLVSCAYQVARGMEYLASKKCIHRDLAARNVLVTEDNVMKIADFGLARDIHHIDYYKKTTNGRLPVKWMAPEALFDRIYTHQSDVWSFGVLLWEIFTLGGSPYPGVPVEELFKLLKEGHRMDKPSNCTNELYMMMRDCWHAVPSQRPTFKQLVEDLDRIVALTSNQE
T4 sequence (P35968 20-1356): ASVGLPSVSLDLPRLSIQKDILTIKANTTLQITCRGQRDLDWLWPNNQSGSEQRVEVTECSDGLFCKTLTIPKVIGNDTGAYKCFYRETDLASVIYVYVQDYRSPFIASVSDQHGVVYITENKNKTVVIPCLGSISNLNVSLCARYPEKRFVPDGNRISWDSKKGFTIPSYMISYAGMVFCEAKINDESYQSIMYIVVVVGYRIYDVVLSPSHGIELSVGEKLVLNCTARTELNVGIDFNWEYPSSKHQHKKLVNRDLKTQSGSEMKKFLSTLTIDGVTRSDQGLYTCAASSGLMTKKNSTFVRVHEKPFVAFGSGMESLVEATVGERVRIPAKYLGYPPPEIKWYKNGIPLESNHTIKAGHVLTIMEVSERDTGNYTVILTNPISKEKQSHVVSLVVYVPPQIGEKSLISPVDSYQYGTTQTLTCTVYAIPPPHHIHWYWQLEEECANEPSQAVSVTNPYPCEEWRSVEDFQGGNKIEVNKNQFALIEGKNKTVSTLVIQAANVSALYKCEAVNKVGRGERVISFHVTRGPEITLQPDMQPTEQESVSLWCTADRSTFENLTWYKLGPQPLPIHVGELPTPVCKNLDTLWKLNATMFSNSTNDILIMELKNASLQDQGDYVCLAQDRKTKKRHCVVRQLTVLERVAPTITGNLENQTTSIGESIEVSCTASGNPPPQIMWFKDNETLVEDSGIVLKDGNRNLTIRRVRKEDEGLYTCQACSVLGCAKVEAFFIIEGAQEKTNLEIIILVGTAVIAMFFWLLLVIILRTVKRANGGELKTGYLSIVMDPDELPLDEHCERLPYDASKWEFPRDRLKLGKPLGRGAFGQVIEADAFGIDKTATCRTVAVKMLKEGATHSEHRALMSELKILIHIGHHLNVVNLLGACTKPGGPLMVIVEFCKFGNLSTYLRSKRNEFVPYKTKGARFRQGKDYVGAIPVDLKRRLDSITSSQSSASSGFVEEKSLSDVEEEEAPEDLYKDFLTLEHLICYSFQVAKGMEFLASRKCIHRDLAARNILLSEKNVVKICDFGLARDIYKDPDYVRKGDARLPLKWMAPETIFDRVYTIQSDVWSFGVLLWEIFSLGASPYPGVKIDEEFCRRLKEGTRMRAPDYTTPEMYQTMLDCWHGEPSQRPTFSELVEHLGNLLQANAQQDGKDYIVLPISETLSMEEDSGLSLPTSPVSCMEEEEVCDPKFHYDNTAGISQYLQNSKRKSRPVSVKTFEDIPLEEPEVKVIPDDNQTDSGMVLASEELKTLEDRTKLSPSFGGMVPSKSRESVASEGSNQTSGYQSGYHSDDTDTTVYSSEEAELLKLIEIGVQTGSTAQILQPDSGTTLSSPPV
T5 sequence (Q02750 whole entry): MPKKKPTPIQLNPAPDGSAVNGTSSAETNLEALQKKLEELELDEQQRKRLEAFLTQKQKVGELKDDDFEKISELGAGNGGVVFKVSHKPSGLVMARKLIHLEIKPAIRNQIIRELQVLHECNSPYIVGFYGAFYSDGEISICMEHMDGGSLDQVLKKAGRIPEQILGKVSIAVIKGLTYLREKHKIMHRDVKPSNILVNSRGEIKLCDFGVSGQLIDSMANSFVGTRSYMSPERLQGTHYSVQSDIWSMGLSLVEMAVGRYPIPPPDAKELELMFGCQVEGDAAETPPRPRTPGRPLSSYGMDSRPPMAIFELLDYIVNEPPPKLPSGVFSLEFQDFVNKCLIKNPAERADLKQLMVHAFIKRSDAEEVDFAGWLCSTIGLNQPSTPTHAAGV
T9 sequence (P35916 25-1363): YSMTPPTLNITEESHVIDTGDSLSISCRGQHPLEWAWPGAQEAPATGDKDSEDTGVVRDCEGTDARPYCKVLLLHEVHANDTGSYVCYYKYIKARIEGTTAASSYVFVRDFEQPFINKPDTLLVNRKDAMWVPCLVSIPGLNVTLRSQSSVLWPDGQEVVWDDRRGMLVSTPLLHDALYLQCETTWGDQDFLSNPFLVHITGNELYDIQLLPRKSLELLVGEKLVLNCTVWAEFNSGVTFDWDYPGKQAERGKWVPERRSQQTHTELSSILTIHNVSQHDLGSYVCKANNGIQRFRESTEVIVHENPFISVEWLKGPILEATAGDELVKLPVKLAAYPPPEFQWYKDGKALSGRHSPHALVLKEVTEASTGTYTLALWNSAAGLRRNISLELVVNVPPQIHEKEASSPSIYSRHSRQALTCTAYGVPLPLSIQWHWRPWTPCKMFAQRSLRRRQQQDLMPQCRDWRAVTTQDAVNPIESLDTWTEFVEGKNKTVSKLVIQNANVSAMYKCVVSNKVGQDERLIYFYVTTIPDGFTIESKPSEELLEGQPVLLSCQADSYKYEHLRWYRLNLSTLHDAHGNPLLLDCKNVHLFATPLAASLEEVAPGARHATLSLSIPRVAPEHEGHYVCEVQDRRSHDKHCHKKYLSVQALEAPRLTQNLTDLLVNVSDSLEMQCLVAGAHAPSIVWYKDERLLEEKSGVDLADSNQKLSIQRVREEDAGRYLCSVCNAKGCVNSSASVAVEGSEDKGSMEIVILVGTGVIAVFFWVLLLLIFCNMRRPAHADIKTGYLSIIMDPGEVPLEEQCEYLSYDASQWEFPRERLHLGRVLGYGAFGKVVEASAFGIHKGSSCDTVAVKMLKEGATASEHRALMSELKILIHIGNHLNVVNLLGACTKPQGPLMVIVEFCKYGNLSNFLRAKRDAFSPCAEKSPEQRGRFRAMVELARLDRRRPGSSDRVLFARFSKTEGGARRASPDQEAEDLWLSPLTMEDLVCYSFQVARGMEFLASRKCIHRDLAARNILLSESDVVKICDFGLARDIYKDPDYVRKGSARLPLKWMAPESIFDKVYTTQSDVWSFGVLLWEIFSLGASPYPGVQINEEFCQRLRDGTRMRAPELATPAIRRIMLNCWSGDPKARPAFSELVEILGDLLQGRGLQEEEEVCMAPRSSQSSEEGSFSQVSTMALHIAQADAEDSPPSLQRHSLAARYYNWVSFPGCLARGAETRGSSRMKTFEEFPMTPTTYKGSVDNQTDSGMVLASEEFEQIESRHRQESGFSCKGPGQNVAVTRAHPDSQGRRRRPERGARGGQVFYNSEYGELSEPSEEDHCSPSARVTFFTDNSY
T13 sequence (P45984 whole entry): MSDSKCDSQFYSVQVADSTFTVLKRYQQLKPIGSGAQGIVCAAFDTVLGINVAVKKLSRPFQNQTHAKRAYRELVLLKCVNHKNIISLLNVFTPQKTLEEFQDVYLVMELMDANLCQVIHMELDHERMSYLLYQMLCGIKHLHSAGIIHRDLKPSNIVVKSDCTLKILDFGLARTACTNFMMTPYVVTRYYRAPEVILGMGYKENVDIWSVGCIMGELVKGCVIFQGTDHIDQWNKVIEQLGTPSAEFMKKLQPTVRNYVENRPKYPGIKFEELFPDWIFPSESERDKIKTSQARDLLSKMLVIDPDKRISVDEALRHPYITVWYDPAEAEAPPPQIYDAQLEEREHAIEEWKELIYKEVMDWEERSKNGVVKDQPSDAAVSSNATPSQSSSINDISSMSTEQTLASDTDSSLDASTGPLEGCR

Row | Structure (SMILES) | IC50 (Jak3) [µM] | IC50 (B-Raf V600E) [µM] | IC50 (Kdr) [µM] | IC50 (Ret) [µM] | other results
1 | OCc1cccc(-c2ccnc3[nH]cc(Sc4cccc(F)c4)c23)c1 [Compound P-0187] | ≤ 10 | ≤ 10 |  |  | IC50 (Stk6): ≤ 10 µM
2 | O=C(c1ccccc1F)c1c[nH]c2nccc(-c3cccnc3)c12 [Compound P-0061] | ≤ 10 |  | ≤ 10 | ≤ 10 | IC50 (MAP2K1): ≤ 10 µM; IC50 (Btk): ≤ 10 µM; IC50 (Stk6): ≤ 10 µM
3 | O=C(c1cc(F)ccc1F)c1c[nH]c2nccc(-c3cc(F)cc(F)c3)c12 [Compound P-0215] | ≤ 10 | ≤ 10 |  | ≤ 10 | IC50 (FGFR1): ≤ 10 µM; IC50 (Flt4): ≤ 10 µM
4 | O=C(O)/C=C/c1cccc(-c2ccnc3[nH]cc(C(=O)c4cc(F)ccc4F)c23)c1 [Compound P-0141] | ≤ 10 | ≤ 10 | ≤ 10 | ≤ 10 | 
5 | O=C(c1cc(F)ccc1F)c1c[nH]c2nccc(-c3ccsc3)c12 [Compound P-0119] | ≤ 10 | ≤ 10 |  | ≤ 10 | IC50 (FGFR1): ≤ 10 µM; IC50 (Stk6): ≤ 10 µM
6 | COc1ccc(-c2c[nH]c3ncccc23)cc1OC [Compound P-0238] |  |  |  |  | IC50 (Jnk3): ≤ 10 µM; IC50 (PKC theta): ≤ 10 µM; IC50 (Jnk2): ≤ 10 µM
7 | O=C(O)/C=C/c1cccc(-c2ccnc3[nH]cc(C(=O)c4ccccc4F)c23)c1 [Compound P-0108] | ≤ 10 | ≤ 10 | ≤ 10 | ≤ 10 | IC50 (MAP2K1): ≤ 10 µM; IC50 (Btk): ≤ 10 µM
8 | CS(=O)(=O)c1cccc(-c2ccnc3[nH]cc(C(=O)c4ccccc4F)c23)c1 [Compound P-0138] | ≤ 10 |  |  | ≤ 10 | IC50 (Yes): ≤ 10 µM; IC50 (Btk): ≤ 10 µM

The next lines start with results.

Row | IC50 (Jak3) [µM] | IC50 (B-Raf V600E) [µM] | IC50 (Kdr) [µM] | IC50 (Ret) [µM] | Structure (SMILES) | other results
9 | ≤ 10 |  |  |  | CCCC(=O)Nc1ccc(F)c(C(O)c2c[nH]c3ncc(OC)cc23)c1F (stereo not shown) [Compound P-01367] | 
10 | ≤ 10 |  |  |  | NC(=O)c1cccc(-c2cnc3[nH]cc(Cc4ccccc4O)c3c2)c1 [Compound P-01385] | 
11 | ≤ 10 | ≤ 10 |  |  | CC(C)(C)OC(=O)Nc1ccc(F)c(C(O)c2c[nH]c3ncc(Br)cc23)c1F (stereo not shown) [Compound P-0318, {3-[(5-Bromo-1H-pyrrolo[2,3-b]pyridin-3-yl)-hydroxy-methyl]-2,4-difluoro-phenyl}-carbamic acid tert-butyl ester] | IC50 (Pyk2): ≤ 10 µM
12 | ≤ 10 | ≤ 10 | ≤ 10 | ≤ 10 | O=C(c1ccccc1F)c1c[nH]c2nccc(-c3ccccc3F)c12 [Compound P-0730] | IC50 (FGFR1): ≤ 10 µM
